The text below walks through data of ChEMBL document CHEMBL6134788, “Development of naphthalimide hydrazide derivatives as potent antibacterial agents against carbapenem-resistant A. baumannii” (RSC Med Chem, 2024).

One data set relates to Staphylococcus aureus. Briefly: Antibacterial activity against Staphylococcus aureus ATCC 29213 assessed as inhibition of bacterial growth incubated for 16 to 18 hrs by CLSI protocol based method. It is filed as functional. As to conditions: time 16-18 hrs, read-out: MIC100.
The nature of data set [1]: Selectivity index, ratio of CC50 for cytotoxicity against African green monkey VERO cells to MIC for antibacterial activity against carbapenem-resistant Acinetobacter baumannii BAA 1605 assessed as inhibition of bacterial growth. It is filed as toxicity, cell-based. As to conditions: read-out: Selectivity Index.
The subject of data set [2] is Acinetobacter baumannii. Nature of the data set: Antibacterial activity against multi-drug resistant Acinetobacter baumannii clinical isolate 8 assessed as inhibition of bacterial growth incubated for 16 to 18 hrs by CLSI protocol based method. In kind it is functional. The note with it: time 16-18 hrs, read-out: MIC100.
Data set [3] relates to Acinetobacter baumannii. Briefly: Antibacterial activity against multi-drug resistant Acinetobacter baumannii clinical isolate 12 assessed as inhibition of bacterial growth incubated for 16 to 18 hrs by CLSI protocol based method. It is filed as functional. The note with it: time 16-18 hrs, read-out: MIC100.
The test system of data set [4] is Acinetobacter baumannii. Nature of the data set: Antibacterial activity against multi-drug resistant Acinetobacter baumannii 5-143 assessed as inhibition of bacterial growth incubated for 16 to 18 hrs by CLSI protocol based method. As to conditions: time 16-18 hrs, read-out: MIC100. In kind it is functional.
Data set [5] concerns Acinetobacter baumannii. Nature of the data set: Antibacterial activity against multi-drug resistant Acinetobacter baumannii BC-5 assessed as inhibition of bacterial growth incubated for 16 to 18 hrs by CLSI protocol based method. It is filed as functional. The note with it: time 16-18 hrs, read-out: MIC100.
The test system of data set [6] is Acinetobacter baumannii. Briefly: Antibacterial activity against multi-drug resistant Acinetobacter baumannii Naval-17 assessed as inhibition of bacterial growth incubated for 16 to 18 hrs by CLSI protocol based method. In kind it is functional. The note with it: time 16-18 hrs, read-out: MIC100.
In data set [7] the test system is Acinetobacter baumannii. Briefly: Antibacterial activity against multi-drug resistant Acinetobacter baumannii WL-487 assessed as inhibition of bacterial growth incubated for 16 to 18 hrs by CLSI protocol based method. It is filed as functional. As to conditions: time 16-18 hrs, read-out: MIC100.
Data set [8] relates to Acinetobacter baumannii. Briefly: Antibacterial activity against carbapenem-resistant Acinetobacter baumannii BAA 1605 assessed as inhibition of bacterial growth incubated 24 hrs in presence of polymyxin B by checkerboard method. In kind it is functional.
The test system of data set [9] is Acinetobacter baumannii. Briefly: Antibacterial activity against carbapenem-resistant Acinetobacter baumannii BAA 1605 assessed as inhibition of bacterial growth incubated 24 hrs in presence of rifampicin by checkerboard method. In kind it is functional.
Data set [10] has as its system Acinetobacter baumannii. Nature of the data set: Synergistic antibacterial activity against carbapenem-resistant Acinetobacter baumannii BAA 1605 assessed as inhibition of bacterial growth incubated 24 hrs in presence of tobramycin by checkerboard method. In kind it is functional.
For data set [11], the system named is Acinetobacter baumannii. Briefly: Antibacterial activity against carbapenem-resistant Acinetobacter baumannii BAA 1605 assessed as inhibition of bacterial growth by measuring amikacin MIC incubated 24 hrs by checkerboard method. It is filed as functional.
In data set [12] the test system is Acinetobacter baumannii. Nature of the data set: Antibacterial activity against carbapenem-resistant Acinetobacter baumannii BAA 1605 assessed as inhibition of bacterial growth by measuring minocycline MIC incubated 24 hrs by checkerboard method. It is filed as functional.
In data set [13] the test system is Acinetobacter baumannii. Nature of the data set: Antibacterial activity against carbapenem-resistant Acinetobacter baumannii BAA 1605 assessed as inhibition of bacterial growth by measuring polymyxin B MIC incubated 24 hrs by checkerboard method. In kind it is functional.
Data set [14] deals with Acinetobacter baumannii. Nature of the data set: Antibacterial activity against carbapenem-resistant Acinetobacter baumannii BAA 1605 assessed as inhibition of bacterial growth by measuring fractional inhibitory concentration incubated 24 hrs in presence of polymyxin B by checkerboard method. In kind it is functional.
Data set [15] concerns Acinetobacter baumannii. Briefly: Antibacterial activity against carbapenem-resistant Acinetobacter baumannii BAA 1605 assessed as inhibition of bacterial growth by measuring fractional inhibitory concentration incubated 24 hrs in presence of rifampicin by checkerboard method. In kind it is functional.
Data set [16] concerns Acinetobacter baumannii. Briefly: Antibacterial activity against carbapenem-resistant Acinetobacter baumannii BAA 1605 assessed as amikacin MIC by measuring fractional inhibitory concentration incubated 24 hrs by checkerboard method relative to amikacin alone. In kind it is functional.
Data set [17] has as its system Acinetobacter baumannii. Nature of the data set: Antibacterial activity against carbapenem-resistant Acinetobacter baumannii BAA 1605 assessed as minocycline MIC by measuring fractional inhibitory concentration incubated 24 hrs by checkerboard method relative to minocycline alone. It is filed as functional.
The test system of data set [18] is Acinetobacter baumannii. Briefly: Antibacterial activity against carbapenem-resistant Acinetobacter baumannii BAA 1605 assessed as polymyxin B MIC by measuring fractional inhibitory concentration incubated 24 hrs by checkerboard method relative to polymyxin B alone. In kind it is functional.
For data set [19], the system named is Acinetobacter baumannii. Nature of the data set: Antibacterial activity against carbapenem-resistant Acinetobacter baumannii BAA 1605 assessed as reduction in bacterial growth incubated for 24 hrs by time-kill kinetics analysis. It is filed as functional, organism-based.

≈ marks a conversion by molar mass, not a printed value. Calls of active or inactive are those of the source. No cut-off for these calls is given here. Some results are limits rather than exact numbers.

For the molecule `O=C(CCN1C(=O)c2cccc3cccc(c23)C1=O)NNc1ccc(Br)cc1`, the MIC in the data set with Staphylococcus aureus was over 64 µg/mL; with Acinetobacter baumannii [2], 0.5 µg/mL (≈ 1.14 µM); in the data set on Acinetobacter baumannii [3], 0.5 µg/mL (≈ 1.14 µM); in the data set on Acinetobacter baumannii [4], 0.25 µg/mL (≈ 0.57 µM); in the data set on Acinetobacter baumannii [5], 0.5 µg/mL (≈ 1.14 µM); in the data set on Acinetobacter baumannii [6], 1 µg/mL (≈ 2.28 µM). Further, the MIC was found to be 0.5 µg/mL (≈ 1.14 µM) with Acinetobacter baumannii [7]; 0.25 µg/mL with Acinetobacter baumannii [8]; 0.5 µg/mL in the data set on Acinetobacter baumannii [9]; 0.25 µg/mL with Acinetobacter baumannii [10]; 2 µg/mL in the data set on Acinetobacter baumannii [11]; 4 µg/mL in the data set on Acinetobacter baumannii [12]. The MIC in the data set with Acinetobacter baumannii [13] was 0.25 µg/mL. Also, the selectivity ratio in [1] is over 200. The FIC in the data set on Acinetobacter baumannii [14] is listed as 0.25; with Acinetobacter baumannii [15], 0.5; with Acinetobacter baumannii [16], 0.5; with Acinetobacter baumannii [17], 1; in the data set on Acinetobacter baumannii [18], 0.5. In the data set on Acinetobacter baumannii [19], the outcome was inactive.
